Laboratory results from patent publication US10981932B2, “Macrocyclic indole derivatives” (Bayer Aktiengesellschaft, priority 2016, dated 2021).
Structures can show the parent of a compound that is named as a salt. Where two headings read alike, the source gives them in different places.

Experiments:
MCL-1 = MCL-1 (Homo sapiens, UniProt Q07820); test: Protein-protein interaction assay MCL-1/Noxa BH3 peptide (MCL-1 assay), TR-FRET; type: binding; conditions: MBP-MCL-1 / Noxa BH3-derived peptide, median
Procedure, shortened: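 MBP-MCL-1 (1 nM final) was preincubated 10 min at 22 °C with compounds (11 concentrations, 0.1 nM–20 μM, duplicates) in Tris pH 7 buffer with NaCl, KF, Tween-20, DTT and BGG. After 1 h at 22 °C in the dark plus overnight at 4 °C, anti-MBP Eu-cryptate/streptavidin-XL665 TR-FRET was read; IC50 came from a 4-parameter fit.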

SUDHL5 [1] = test: Induction of caspase-3/7 activity (Caspase-Glo 3/7), SUDHL5; type: cell-based; conditions: caspase-3/7 induction, SUDHL5 cells, 3 h treatment, median
Procedure, shortened: (§1)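 Caspase-Glo 3/7 luminescence measured after 3 h compound exposure at 37 °C in SUDHL10 and SUDHL5 cells. EC50 values come from background-corrected signals, with curve bottom set to 1 and plateau set to maximal induction by the reference compound.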

SUDHL10 [2] = test: Induction of caspase-3/7 activity (Caspase-Glo 3/7), SUDHL10; type: cell-based; conditions: caspase-3/7 induction, SUDHL10 cells, 3 h treatment, median
Procedure, shortened: as §1

SUDHL5 [3] = test: Anti-proliferative effect (CellTiter-Glo, 72 h), SUDHL5; type: cell-based; conditions: SUDHL5 cells, antiproliferation, 72 h incubation, median, read-out: Antiproli SUDHL5 [M] (median)
Procedure, shortened: (§2)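 CellTiter-Glo luminescence readout of viability, taken on a time-zero plate at day 0 and on treated plates after 72 h incubation at 37 °C in a humidified incubator. Reagent incubation 10 min before reading.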

SUDHL10 [4] = test: Anti-proliferative effect (CellTiter-Glo, 72 h), SUDHL10; type: cell-based; conditions: SUDHL10 cells, antiproliferation, 72 h incubation, median, read-out: Antiproli SUDHL10 [M] (median)
Procedure, shortened: as §2

OPM2 = test: Anti-proliferative effect (CellTiter-Glo, 72 h), OPM2; type: cell-based; conditions: OPM2 cells, median, read-out: IC50 antiproliferation assay OPM2 [M] (median)
Procedure, shortened: as §2

A2780 = test: Anti-proliferative effect (CellTiter-Glo, 72 h), A2780; type: cell-based; conditions: A2780 cells, median, read-out: IC50 antiproliferation assay A2780 [M] (median)
Procedure, shortened: as §2

SUDHL5 [5] = test: Induction of cytotoxicity (CellTiter-Glo, 5 h), SUDHL5
SUDHL10 [6] = test: Induction of cytotoxicity (CellTiter-Glo, 5 h), SUDHL10
[7] = read-out: Cytotox SUDHL5 [M] (median), SUDHL5 cells, cytotoxicity induction, CellTiter-Glo, 5 h incubation, median
[8] = read-out: Cytotox SUDHL10 [M] (median), SUDHL10 cells, cytotoxicity induction, CellTiter-Glo, 5 h incubation, median
[9] = Homo sapiens, SU-DHL-5, 5 h, read-out: Cytotox SUDHL5 [M] (median), SUDHL5 cells, cytotoxicity induction, CellTiter-Glo, 5 h incubation, median
[10] = Homo sapiens, SU-DHL10, 5 h, read-out: Cytotox SUDHL10 [M] (median), SUDHL10 cells, cytotoxicity induction, CellTiter-Glo, 5 h incubation, median

Sequence of MCL-1 (Q07820 whole entry): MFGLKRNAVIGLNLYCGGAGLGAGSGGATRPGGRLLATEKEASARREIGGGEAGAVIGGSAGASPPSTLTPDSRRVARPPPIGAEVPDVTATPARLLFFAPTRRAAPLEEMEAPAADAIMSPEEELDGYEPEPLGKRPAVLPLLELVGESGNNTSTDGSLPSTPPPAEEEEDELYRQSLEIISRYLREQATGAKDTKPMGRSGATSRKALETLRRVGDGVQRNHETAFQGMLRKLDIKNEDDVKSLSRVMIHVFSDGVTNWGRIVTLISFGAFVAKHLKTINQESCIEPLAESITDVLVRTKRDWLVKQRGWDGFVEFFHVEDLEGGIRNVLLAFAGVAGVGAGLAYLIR

Row | IC50 (MCL-1) [µM] | EC50 (SUDHL5 [1]) [µM] | EC50 (SUDHL10 [2]) [µM] | IC50 (SUDHL5 [3]; Homo sapiens, SU-DHL-5, 72 h) [M] | IC50 (SUDHL10 [4]) [M] | IC50 (A2780; Homo sapiens, A2780, 72 h) [M] | EC50 (SUDHL5 [1]; Homo sapiens, SU-DHL-5, 3 h) [µM] | EC50 (SUDHL10 [2]; Homo sapiens, SU-DHL10, 3 h) [µM] | IC50 (SUDHL10 [4]; Homo sapiens, SU-DHL10, 72 h) [M] | IC50 (SUDHL5 [3]) [M] | IC50 (A2780) [M] | Compound | IC50 (OPM2) [M] | IC50 (SUDHL5 [5]; [7]) [M] | IC50 (SUDHL10 [6]; [8]) [M] | IC50 (OPM2; Homo sapiens, OPM-2, 72 h) [M] | IC50 (SUDHL5 [5]; [9]) [M] | IC50 (SUDHL10 [6]; [10]) [M]
1 | 0.00106 |  |  | 2.41e-06 |  | 1.29e-05 | 2.34 | 2.82 | 2.49e-06 |  |  | Cn1nc(COc2ccc(N3CCN(C(=O)C4CC4)CC3)cc2)c2c1COCCCCn1c(C(=O)O)c(CCCOc3cccc4ccccc34)c3cccc-2c31 (racemic) [Example 1-21, (rac)-3-({4-[4-(cyclopropylcarbonyl)piperazin-1-yl]phenoxy}methyl)-1-methyl-7-[3-(naphthalen-1-yloxy)propyl]-10,11,12,13,15-hexahydropyrazolo[4′,3′:9,10][1,6]oxazacycloundecino[8,7,6-hi]indole-8-carboxylic Acid] |  |  |  | 3.61e-06 | 2.31e-06 | 3.26e-06
2 | 0.304 | 15.2 |  |  |  |  |  | 5.18 | 1.73e-06 | 2.43e-06 | 2.47e-06 | CCN(CC)S(=O)(=O)N1CCN(c2ccc(OCc3nn(C)c4c3-c3cccc5c(CCCOc6cccc7ccccc67)c(C(=O)O)n(c35)CCCCOC4)cc2)CC1 (single isomer, unassigned; enantiomer 1) [Example 1-4, 3-({4-[4-(diethylsulfamoyl)piperazin-1-yl]phenoxy}methyl)-1-methyl-7-[3-(naphthalen-1-yloxy)propyl]-1,10,11,12,13,15-hexahydropyrazolo[4′,3′:9,10][1,6]oxazacycloundecino[8,7,6-hi]indole-8-Carboxylic acid (Enantiomer 1)] | 3.36e-06 | 1.83e-05 |  |  |  | 7.42e-06
3 | 0.0581 | 15.3 | 15.3 |  | 2.58e-06 |  |  |  |  | 4.04e-06 | 7.54e-06 | CCS(=O)(=O)N1CCN(c2ccc(N3CCCn4c(C(=O)O)c(CCCOc5cccc6ccccc56)c5cccc(c54)-c4c(C)nn(C)c4C3)cc2)CC1 (single isomer, unassigned; enantiomer 2) [Example 1-110, 7-{4-[4-(Ethylsulfonyl)piperazin-1-yl]phenyl}-9,11-dimethyl-1-[3-(1-naphthyloxy)propyl]-4,5,6,7,8,9-hexahydropyrazolo[3′,4′:7,8][1,5]diazecino[9,10,1-hi]indole-2-carboxylic Acid (Enantiomer 2)] | 8.62e-06 | 1.53e-05 | 1.69e-05 |  |  | 

The remaining lines, values behind:

Row | Compound | IC50 (MCL-1) [µM] | EC50 (SUDHL5 [1]) [µM] | EC50 (SUDHL10 [2]) [µM] | IC50 (SUDHL5 [3]; Homo sapiens, SU-DHL-5, 72 h) [M] | IC50 (SUDHL10 [4]) [M] | IC50 (A2780; Homo sapiens, A2780, 72 h) [M] | EC50 (SUDHL5 [1]; Homo sapiens, SU-DHL-5, 3 h) [µM] | EC50 (SUDHL10 [2]; Homo sapiens, SU-DHL10, 3 h) [µM] | IC50 (SUDHL10 [4]; Homo sapiens, SU-DHL10, 72 h) [M] | IC50 (SUDHL5 [3]) [M] | IC50 (A2780) [M] | IC50 (OPM2) [M] | IC50 (SUDHL5 [5]; [7]) [M] | IC50 (SUDHL10 [6]; [8]) [M] | IC50 (OPM2; Homo sapiens, OPM-2, 72 h) [M] | IC50 (SUDHL5 [5]; [9]) [M] | IC50 (SUDHL10 [6]; [10]) [M]
4 | Cc1c2c(nn1CCN1CCOCC1)COCCCCn1c(C(=O)O)c(CCCOc3cccc4ccccc34)c3cccc-2c31 (single isomer, unassigned; enantiomer 1) [Example 054, 3-methyl-2-[2-(morpholin-4-yl)ethyl]-7-[3-(naphthalen-1-yloxy)propyl]-2,10,11,12,13,15-hexahydropyrazolo[4′,3′:9,10][1,6]oxazacycloundecino[8,7,6-hi]indole-8-carboxylic acid-N-ethylethanamine Salt (Enantiomer 1)] | 0.00156 | 1.47 | 6.64 | 8.08e-07 | 2.44e-06 | 2.48e-05 |  |  |  |  |  | 7.46e-06 | 1.61e-06 | 4.68e-06 |  |  | 
5 | Cc1ccc2c(CCCOc3cccc4ccccc34)c(C(=O)O)n3c2c1-c1c(nn(C)c1C)COC/C=C\C3 (racemic) [Example 070, (rac)-(11Z)-2,3,4-trimethyl-7-[3-(naphthalen-1-yloxy)propyl]-2,10,13,15-tetrahydropyrazolo[4′,3′:9,10][1,6]oxazacycloundecino[8,7,6-hi]indole-8-carboxylic Acid] | 0.00652 |  |  | 2e-06 |  | 1.87e-05 | 5.4 | 8.62 | 8.58e-06 |  |  |  |  |  | 1.34e-05 | 4.28e-06 | 9.59e-06
6 | Cn1nc(CN2CCOCC2)c2c1COCC=CCn1c(C(=O)O)c(CCCOc3cccc4ccccc34)c3cccc-2c31 (racemic) [Example 132, (rac)-(E/Z)-1-methyl-3-(morpholin-4-ylmethyl)-7-[3-(naphthalen-1-yloxy)propyl]-1,10,13,15-tetrahydropyrazolo[4′,3′:9,10][1,6]oxazacycloundecino[8,7,6-hi]indole-8-carboxylic Acid] | 0.0335 |  |  | 1.78e-05 |  | 1.34e-05 | 25.4 | > 33 | 6e-06 |  |  |  |  |  | 1.17e-05 | 2.81e-05 | 1.69e-05
7 | COCCn1nc2c(c1C)-c1cccc3c(CCCOc4cccc5ccccc45)c(C(=O)O)n(c13)CCCN(C)C2 (racemic) [Example 052, (rac)-10-(2-methoxyethyl)-7,11-dimethyl-1-[3-(naphthalen-1-yloxy)propyl]-4,5,6,7,8,10-hexahydropyrazolo[3′,4′:7,8][1,5]diazecino[9,10,1-hi]indole-2-carboxylic Acid] | 0.028 |  |  | 2.15e-06 |  | 7.41e-06 | 29.9 | > 33 | 1.3e-05 |  |  |  |  |  | 3.07e-05 | 2.68e-05 | 2.97e-05
8 | Cc1c2c(nn1C)COCCCn1c(C(=O)O)c(CCCOc3cccc4ccccc34)c3cccc-2c31 (racemic) [Example 063, (rac)-10,11-dimethyl-1-[3-(naphthalen-1-yloxy)propyl]-5,6,8,10-tetrahydro-4H-pyrazolo[4′,3′:8,9][1,5]oxazecino[7,6,5-hi]indole-2-carboxylic Acid] | 0.0106 |  |  | 3.98e-06 |  | 2.02e-05 | 7.71 | 16.5 | 5.35e-06 |  |  |  |  |  | 1.36e-05 | 7.73e-06 | 1.16e-05
9 | CCn1nc2c(c1C1CC1)-c1cccc3c(CCCOc4cccc5ccccc45)c(C(=O)O)n(c13)CCCCOC2 (racemic) [Example 081, (rac)-3-Cyclopropyl-2-ethyl-7-[3-(naphthalen-1-yloxy)propyl]-2,10,11,12,13,15-hexahydropyrazolo[4′3′:9,10][1,6]oxazacycloundecino[8,7,6-hi]indole-8-carboxylic Acid] | 0.015 |  |  | 9.61e-06 |  | 1.74e-05 | 7.21 | 19 | 9.62e-06 |  |  |  |  |  | 1.44e-05 | 7.06e-06 | 2.26e-05
10 | Cc1c2c(nn1CCN1CCOCC1)CN(C)CCCn1c(C(=O)O)c(CCCOc3cccc4ccccc34)c3cccc-2c31 (racemic) [Example 059, (rac)-7,11-dimethyl-10-[2-(morpholin-4-yl)ethyl]-1-[3-(naphthalen-1-yloxy)propyl]-4,5,67,8,10-hexahydropyrazolo[3′,4′:7,8][1,5]diazecino[9,10,1-hi]indole-2-carboxylic Acid] | 0.0239 |  |  | 6.96e-06 |  | 2.91e-05 | 15.9 | 27.7 | 1.99e-05 |  |  |  |  |  | 2.52e-05 | 2.54e-05 | 1.9e-05
11 | Cc1nn(C)c2c1-c1cccc3c(CCCOc4ccc(F)c5ccccc45)c(C(=O)O)n(c13)CCCCOC2 (racemic) [Example 021, (rac)-7-{3-[(4-fluoronaphthalen-1-yl)oxy]propyl}-1,3-dimethyl-1,10,11,12,13,15-hexahydropyrazolo[4′,3′:9,10][1,6]oxazacycloundecino[8,7,6-hi]indole-8-carboxylic Acid] | 0.011 |  |  | 2.4e-05 |  | > 3.3e-05 | 13.4 | > 33 | 5.25e-06 |  | 2.52e-05 |  |  |  | > 3.3e-05 | 1.82e-05 | > 3.3e-05
